According to patent US11007237B2, “Agent for suppressing carbohydrate breakdown and absorption” (KOHAKU BIO TECHNOLOGY CO., LTD., priority 2017, dated 2021):

Experiments:
Caco-2 cells = assay: Suppression test for glucose uptake by the intestinal epithelial-like cells (Caco-2 cells), Transwell glucose permeation; format: cell-based, human; conditions: for Glucose permeability (%) (n = 3): apical side, 2 hours, control = 100
Protocol: (§1) The extract obtained can be examined for action to suppress α-glucosidase activity, for example, by the following method. The extract is added to human colon cancer-derived cells (hereinafter referred to as Caco-2 cells) and the cells are cultured. The cultured cells are collected. With a crude enzyme solution thereof, sucrose or maltose serving as substrate is allowed to react. The amount of glucose generated is quantified by an enzyme method using glucose oxidase. An action to inhibit glucose uptake can be examined by the following method. To Caco-2 cells differentiated into the intestinal epithelial-like, glucose and the extract were simultaneously added. The amount of glucose taken in the cells or permeated through the cells is quantified by an enzyme method using glucose oxidase.
The test herein was carried out in accordance with the method of Konishi et al. (Konishi et al., Biosci. Biotechnol. Biochem., 67(4), 856-862, 2003). In DMEM culture medium, Caco-2 cells were suspended. The suspension was added in Transwell-COL of 12 mm diameter and 0.4 μm in pore size (manufactured by Corning Incorporated) (hereinafter referred to as Transwell) in a ratio of 1.0×10^5 cells/cm^2 to seed the cells. The cells were cultured under 95% air-5% carbon dioxide gas at 37° C. for 3 weeks while exchanging the medium at intervals of 2 to 3 days.
After an intercellular electrical resistance (TER value) was confirmed to be 350 Ω·cm^2 or more by Millicell ERS-2 resistance measurement system (manufactured by Merck Millipore), the amber extract obtained in Production Example 1 was dissolved in DMSO on the apical side so as to obtain a final concentration of 0.2, 1 and 2 mg/mL, and mixed with a solution obtained by dissolving D(+)-glucose in PBS (+) in a concentration of 0.5% (hereinafter referred to as the 0.5% glucose solution) (DMSO final concentration: 1%). The resultant mixed solutions each were added in an amount of 500 μL. DMSO was added to a 0.5% glucose solution so as to obtain a DMSO final concentration of 1% and treated. This was used as a control. Phlorizin n-hydrate derived from an apple (hereinafter referred to as phlorizin) was dissolved in DMSO so as to obtain a final concentration of 1 mg/mL and mixed with the 0.5% glucose solution. The resultant DMSO solution (DMSO final concentration: 1%) was treated and used as a positive control. Further, succinic acid was subjected to a glucose permeation suppression test in the amount corresponding to that contained in the amber extract. More specifically, the content of succinic acid in the amber extract obtained in Production Example 1 was calculated by use of analysis/preparative high performance liquid chromatographic apparatus and Fourier transform infrared spectrophotometer. As a result, the content rate of succinic acid was confirmed to be 2% or less. Then, succinic acid was dissolved in DMSO so as to obtain a final concentration of 0.02, 0.05 and 0.1 mg/mL and mixed with PBS (+)(DMSO final concentration: 1%) and treated. At each basolateral side, 500 μL of PBS (+) was added. These transwells were subjected to culture carried out under 95% air −5% carbon dioxide gas at 37° C. for 2 hours. Thereafter the amount of glucose permeated on the basolateral side was quantified by use of glucose CII test Wako. The glucose permeability of the control sample was regarded as 100 and the relative changes for the samples containing a test substance were calculated. After the test, the TER value was confirmed to be 350 Ω·cm^2 or more.

sucrase = target: T1, sucrase (Homo sapiens, UniProt P14410); assay: Suppression test for sucrase activity in Caco-2 cells; format: cell-based
T1 construct: Cells were collected with a lysis buffer (0.1 M phosphate buffer (pH6.8), 0.5% TritonX-100); endogenous in cells; host or cells: Caco-2 cells (Triton X-100 lysate supernatant, crude enzyme)
T1 sequence (P14410 whole entry): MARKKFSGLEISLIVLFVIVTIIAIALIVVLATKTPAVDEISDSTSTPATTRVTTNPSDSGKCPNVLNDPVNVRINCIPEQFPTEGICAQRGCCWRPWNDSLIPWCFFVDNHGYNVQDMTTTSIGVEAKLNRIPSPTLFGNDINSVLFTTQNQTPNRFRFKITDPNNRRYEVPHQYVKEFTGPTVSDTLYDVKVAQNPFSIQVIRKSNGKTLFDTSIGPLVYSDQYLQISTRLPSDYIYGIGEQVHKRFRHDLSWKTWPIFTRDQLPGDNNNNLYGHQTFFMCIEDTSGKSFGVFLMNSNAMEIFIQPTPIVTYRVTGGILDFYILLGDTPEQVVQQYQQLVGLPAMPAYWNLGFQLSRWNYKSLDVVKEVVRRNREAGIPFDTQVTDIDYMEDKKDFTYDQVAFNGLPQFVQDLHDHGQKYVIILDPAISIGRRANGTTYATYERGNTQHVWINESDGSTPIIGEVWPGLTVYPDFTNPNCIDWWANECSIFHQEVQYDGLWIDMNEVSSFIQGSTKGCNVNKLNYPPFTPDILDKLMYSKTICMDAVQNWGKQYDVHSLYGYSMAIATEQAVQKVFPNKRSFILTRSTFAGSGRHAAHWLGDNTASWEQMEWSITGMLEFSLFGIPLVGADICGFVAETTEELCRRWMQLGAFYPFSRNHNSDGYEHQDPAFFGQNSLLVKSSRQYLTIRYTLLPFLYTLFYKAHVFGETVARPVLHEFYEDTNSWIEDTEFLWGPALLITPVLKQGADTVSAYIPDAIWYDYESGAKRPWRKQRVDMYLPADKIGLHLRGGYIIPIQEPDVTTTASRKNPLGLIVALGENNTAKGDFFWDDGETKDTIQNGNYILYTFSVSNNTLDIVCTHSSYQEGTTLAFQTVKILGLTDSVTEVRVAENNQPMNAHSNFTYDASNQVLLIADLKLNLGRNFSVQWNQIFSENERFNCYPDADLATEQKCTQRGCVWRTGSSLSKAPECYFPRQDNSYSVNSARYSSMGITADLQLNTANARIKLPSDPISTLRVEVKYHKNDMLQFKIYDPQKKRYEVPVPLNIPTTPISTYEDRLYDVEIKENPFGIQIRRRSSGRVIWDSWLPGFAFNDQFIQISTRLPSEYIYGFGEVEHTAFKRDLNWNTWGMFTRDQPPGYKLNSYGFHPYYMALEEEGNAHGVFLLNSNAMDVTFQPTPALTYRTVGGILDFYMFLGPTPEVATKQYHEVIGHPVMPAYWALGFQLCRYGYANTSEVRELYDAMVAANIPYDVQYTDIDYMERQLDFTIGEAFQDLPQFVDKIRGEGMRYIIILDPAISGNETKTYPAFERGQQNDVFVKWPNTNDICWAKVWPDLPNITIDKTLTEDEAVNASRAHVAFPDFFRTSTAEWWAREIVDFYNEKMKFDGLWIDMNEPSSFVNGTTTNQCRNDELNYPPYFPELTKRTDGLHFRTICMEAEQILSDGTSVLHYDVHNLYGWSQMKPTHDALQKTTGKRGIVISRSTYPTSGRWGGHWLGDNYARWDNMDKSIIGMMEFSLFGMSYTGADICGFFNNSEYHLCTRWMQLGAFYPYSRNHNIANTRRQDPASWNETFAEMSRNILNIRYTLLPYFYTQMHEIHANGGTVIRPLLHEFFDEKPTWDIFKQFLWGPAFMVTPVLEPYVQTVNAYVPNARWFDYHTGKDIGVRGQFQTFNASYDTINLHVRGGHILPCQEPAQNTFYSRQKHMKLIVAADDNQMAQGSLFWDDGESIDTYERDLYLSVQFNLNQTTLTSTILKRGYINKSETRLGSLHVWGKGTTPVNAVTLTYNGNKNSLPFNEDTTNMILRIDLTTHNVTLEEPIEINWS
Protocol: as §1
(§2) The test herein was carried out with reference to the method of OGAWA et al. (N. Ogawa et al., the Journal of Nutrition, 130: 507-513, 2000).
To Dulbecco's modified eagle medium (DMEM)(manufactured by Thermo Fisher Scientific K.K.), 10% fetal bovine serum (hereinafter referred to as FBS)(manufactured by Thermo Fisher Scientific K.K.), a 1% antibacterial agent (Penicillin-Streptomycin-L-Glutamine) (manufactured by FUJIFILM Wako Pure Chemical Corporation) and a 1% non-essential amino acid mixture (MEM Non-Essential Amino Acids) (manufactured by Thermo Fisher Scientific K.K.) were added to prepare a culture solution (hereinafter referred to as DMEM culture medium). In the DMEM culture solution (medium), Caco-2 cells were suspended. The suspension was added in 24-well plates (manufactured by TPP) in a ratio of 1.0×10^4 cells/cm^2 to seed the cells. The cells were cultured under 95% air/5% carbon dioxide gas at 37° C. for 8 to 10 days until the cultured cells reached confluency while exchanging the medium at intervals of 2 to 3 days. After the culture supernatant was removed by suction, the amber extract (50% ethanol extract) obtained in Production Example 1 was dissolved in dimethyl sulfoxide (hereinafter referred to as DMSO) so as to obtain a final concentration of 100 and 200 μg/mL. The DMSO solutions were mixed with DMEM culture medium (DMSO final concentration: 0.25%) and each added in an amount of 500 μL. DMSO was added to DMEM culture medium so as to obtain a DMSO final concentration of 0.25% and treated. This was used as a control. […] This was used as a positive control. In addition, the suppression test for sucrase/maltase activity was carried out by using succinic acid in the corresponding amount to that contained in amber extract. More specifically, the content of succinic acid in the amber extract obtained in Production Example 1 was calculated by analysis/preparative high performance liquid chromatographic apparatus and a Fourier transform infrared spectrophotometer. […]
(§3) Cells were collected with a lysis buffer (0.1 M phosphate buffer (pH6.8), 0.5% TritonX-100), allowed to stand still on ice for 20 minutes and centrifuged (10,000×g) at 4° C. for 30 minutes, and then, the supernatant was collected. […] Thereafter, the amount of the glucose generated was quantified in accordance with an enzyme method using glucose CII test Wako (manufactured by FUJIFILM Wako Pure Chemical Corporation). The sucrase activity and maltase activity were calculated, respectively, based on the production amount of glucose.

maltase = assay: Suppression test for maltase activity in Caco-2 cells; format: cell-based, human; conditions: for Maltase activity (%) (n = 3): Caco-2 cells treated 7 days, control = 100
Protocol: as §1, §2
To Dulbecco's modified eagle medium (DMEM)(manufactured by Thermo Fisher Scientific K.K.), 10% fetal bovine serum (hereinafter referred to as FBS)(manufactured by Thermo Fisher Scientific K.K.), a 1% antibacterial agent (Penicillin-Streptomycin-L-Glutamine) (manufactured by FUJIFILM Wako Pure Chemical Corporation) and a 1% non-essential amino acid mixture (MEM Non-Essential Amino Acids) (manufactured by Thermo Fisher Scientific K.K.) were added to prepare a culture solution (hereinafter referred to as DMEM culture medium). In the DMEM culture solution (medium), Caco-2 cells were suspended. The suspension was added in 24-well plates (manufactured by TPP) in a ratio of 1.0×10^4 cells/cm^2 to seed the cells. The cells were cultured under 95% air/5% carbon dioxide gas at 37° C. for 8 to 10 days until the cultured cells reached confluency while exchanging the medium at intervals of 2 to 3 days. […] More specifically, the content of succinic acid in the amber extract obtained in Production Example 1 was calculated by analysis/preparative high performance liquid chromatographic apparatus and a Fourier transform infrared spectrophotometer. […]
as §3

[1] = Caco-2 cells, succinic acid in the amount corresponding to that contained in the amber extract

In the case of `O=C(CCc1ccc(O)cc1)c1c(O)cc(O)cc1O[C@@H]1O[C@H](CO)[C@@H](O)[C@H](O)[C@H]1O` [Phlorizin, Phlorizin n-hydrate], the “Glucose permeability (%) (n = 3)” value (Caco-2 cells; 1 mg/mL, 0.5% glucose) is reported as 27.4 ± 1.8 %.

In the case of `O=C(O)CCC(=O)O` [Succinic acid, succinic acid], the “Glucose permeability (%) (n = 3)” value (Caco-2 cells; 0.02 mg/mL) is reported as 94.6 ± 1.6%, the “Glucose permeability (%) (n = 3)” value (Caco-2 cells; 0.05 mg/mL) is reported as 92.8 ± 3.2% and the “Glucose permeability (%) (n = 3)” value (Caco-2 cells; 0.1 mg/mL) is reported as 95.4 ± 2.5%. For the same compound, the “Suppression of glucose uptake / permeation in Caco-2 cells (in words)” value (Caco-2 cells; [1]) was “not confirmed”, the activity at 2 µg/mL (sucrase; 2 μg/mL, Caco-2 cells treated 7 days, control = 100, read-out: Sucrase activity (%) (n = 3)) was 102 ± 3% and the activity at 5 µg/mL (sucrase; 5 μg/mL, Caco-2 cells treated 7 days, control = 100, read-out: Sucrase activity (%) (n = 3)) was 95.4 ± 1.4%. For the same compound, the activity at 25 µg/mL (sucrase; 25 μg/mL, Caco-2 cells treated 7 days, control = 100, read-out: Sucrase activity (%) (n = 3)) was 99.2 ± 2%, the “Action to suppress sucrase activity in Caco-2 cells (in words)” value (sucrase; [1]) was “not confirmed” and the “Maltase activity (%) (n = 3)” value (maltase; 2 μg/mL) was 108.3 ± 1.5%. The “Maltase activity (%) (n = 3)” value (maltase; 5 μg/mL) was 99.2 ± 1.3%, the “Maltase activity (%) (n = 3)” value (maltase; 25 μg/mL) was 100.9 ± 2.1% and the “Action to suppress maltase activity in Caco-2 cells (in words)” value (maltase; [1]) was “not confirmed”.

In the case of `C[C@H]1O[C@H](O[C@H]2[C@H](O)[C@@H](O)[C@@H](O[C@H]3[C@H](O)[C@@H](O)C(O)O[C@@H]3CO)O[C@@H]2CO)[C@H](O)[C@@H](O)[C@@H]1N[C@H]1C=C(CO)[C@@H](O)[C@H](O)[C@H]1O` (some centres unmarked) [ACA, Acarbose], the activity at 100 µg/mL (sucrase; 100 μg/mL, Caco-2 cells treated 7 days, control = 100, read-out: Sucrase activity (%) (n = 3)) is reported as 90.2 ± 4.1%.
